Holding throughout (assay type): functional
For assay [1], the system named is Staphylococcus aureus. In words: Antibacterial activity against Staphylococcus aureus UCN14.
Assay [2] concerns Staphylococcus aureus. The assay can be described thus: Antibacterial activity against Staphylococcus aureus UCN17.
Assay [3] relates to Staphylococcus aureus. The assay can be described thus: Antibacterial activity against Staphylococcus aureus UCN18.
In assay [4] the test system is Escherichia coli. The assay can be described thus: Antibacterial activity against Escherichia coli DK3535.
Assay [5] relates to Escherichia coli. The assay can be described thus: Antibacterial activity against Escherichia coli DK2058G.
The test system of assay [6] is Staphylococcus aureus. In words: Antibacterial activity against Staphylococcus aureus ATCC 33591.
Assay [7] has as its system Streptococcus pneumoniae. The assay can be described thus: Antibacterial activity against Streptococcus pneumoniae 655 mef A.
Assay [8] deals with Streptococcus pneumoniae. The assay can be described thus: Antibacterial activity against Streptococcus pneumoniae 2196 erm B.
Assay [9] has as its system Streptococcus pneumoniae. In words: Antibacterial activity against Streptococcus pneumoniae 2634 mef A 2059G.
The subject of assay [10] is Staphylococcus aureus. In words: Antibacterial activity against Staphylococcus aureus ATCC 29213.
Assay [11] has as its system Escherichia coli. The assay can be described thus: Antibacterial activity against Escherichia coli DK.
Assay [12] concerns Escherichia coli. In words: Antibacterial activity against Escherichia coli SQ171.
Assay [13] has as its system Escherichia coli. In words: Antibacterial activity against Escherichia coli SQ171 2058G.
In assay [14] the test system is Staphylococcus aureus. In words: Antibacterial activity against methicillin-resistant Staphylococcus aureus ATCC 43300.
Assay [15] deals with Enterococcus faecium. In words: Antibacterial activity against Enterococcus faecium NCTC 7171.
Assay [16] concerns Pseudomonas aeruginosa. In words: Antibacterial activity against Pseudomonas aeruginosa HER 1018.
Assay [17] has as its system Klebsiella pneumoniae. In words: Antibacterial activity against Klebsiella pneumoniae BAA 2146.
Assay [18] relates to Acinetobacter baumannii. In words: Antibacterial activity against Acinetobacter baumannii 2208 ATCC 19606.
The subject of assay [19] is Escherichia coli. In words: Antibacterial activity against Escherichia coli MG1655.
The subject of assay [20] is Enterobacter cloacae. In words: Antibacterial activity against Enterobacter cloacae ATCC 13047.

Each structure is given as a SMILES string. In brackets after ≈: the same amount, converted by molar mass. Where only a bound is given, the exact number is not on record here.

As for `CC[C@H]1OC(=O)[C@@](C)(F)C(=O)[C@H](C)[C@@H](OC[C@@H](O)CN2CCOCC2)[C@](C)(OC)C[C@@H](C)C(=O)[C@H](C)C2N(CCCCn3cc(-c4cccc(N)c4)nn3)C(=O)O[C@@]21C` (single isomer, unassigned), the MIC (as a rule, the lowest concentration found to suppress growth) in [1] is > 150 µM; in assay [2], > 150 µM; in assay [3], > 150 µM; in [4], 4.8 µM (≈ 3.99 µg/mL); in assay [5] it was 4.8 µM (≈ 3.99 µg/mL); in assay [6], > 150 µM. For the same compound, the minimal inhibitory concentration (MIC) in assay [7], in [8] and in [9] was > 4.8 µM throughout.

For `CC[C@H]1OC(=O)[C@@](C)(F)C(=O)[C@H](C)[C@@H](OC[C@@H](O)CN(C)C)[C@](C)(OC)C[C@@H](C)C(=O)[C@H](C)C2N(CCCCn3cc(-c4cccc(N)c4)nn3)C(=O)O[C@@]21C` (single isomer, unassigned), the MIC is > 160 µM in [1]; > 160 µM in assay [2]; > 160 µM in assay [3]; > 41 µM in [4]; > 41 µM in [5]; > 160 µM in assay [6]. The MIC in assay [7] was 2.5 µM (≈ 1.97 µg/mL); in [8], > 5.1 µM; in [9], > 5.1 µM.

Turning to `CC[C@H]1OC(=O)[C@@](C)(F)C(=O)[C@H](C)[C@@H](OC[C@@H](O)CN2CCCCC2)[C@](C)(OC)C[C@@H](C)C(=O)[C@H](C)C2N(CCCCn3cc(-c4cccc(N)c4)nn3)C(=O)O[C@@]21C` (single isomer, unassigned), the minimal inhibitory concentration (MIC) in [1] was > 150 µM; in [2] it was > 150 µM; in assay [3], > 150 µM; in assay [4], 9.6 µM (≈ 7.96 µg/mL); in assay [5], 4.8 µM (≈ 3.98 µg/mL); in [6] it was > 150 µM. Moreover, the MIC in assay [7], in [8] and in assay [9] was > 4.8 µM in each case.

On to `CC[C@H]1OC(=O)[C@@](C)(F)C(=O)[C@H](C)[C@@H](O[C@@H]2O[C@H](C)C[C@H](N(C)C)[C@H]2O)[C@](C)(OC)C[C@@H](C)C(=O)[C@H](C)[C@H]2N(CCCCn3cc(-c4cccc(N)c4)nn3)C(=O)O[C@]12C` [SOLITHROMYCIN], for which the MIC is 0.071 µM (≈ 0.06 µg/mL) in [10]; 9.5 µM (≈ 8.03 µg/mL) in assay [1]; 4.7 µM (≈ 3.97 µg/mL) in assay [2]; 4.7 µM (≈ 3.97 µg/mL) in assay [3]; 2.4 µM (≈ 2.03 µg/mL) in assay [11]; 2.4 µM (≈ 2.03 µg/mL) in assay [4]. For the same compound, the MIC in assay [5] is 4.7 µM (≈ 3.97 µg/mL); in [12], > 38 µM; in assay [13], > 38 µM; in assay [14], > 200 µM; in assay [15], 0.2 µM (≈ 0.169 µg/mL); in assay [16] it was 30 µM (≈ 25.4 µg/mL). Further, the MIC in [17] is 100 µM (≈ 84.5 µg/mL); in assay [18] it was 50 µM (≈ 42.3 µg/mL); in [19] it was 100 µM (≈ 84.5 µg/mL); in [20], 200 µM (≈ 169 µg/mL); in assay [6] it was 38 µM (≈ 32.1 µg/mL); in assay [7], 0.29 µM (≈ 0.245 µg/mL). In addition, the MIC in [8] came to 0.59 µM (≈ 0.499 µg/mL); in assay [9] it was 0.15 µM (≈ 0.127 µg/mL).

The record behind these values is ChEMBL document CHEMBL5154777, “Alternative approaches utilizing click chemistry to develop next-generation analogs of solithromycin” (2022).
